{"source": "patent US20100130526A1", "about": "“Methods for Disease Therapy” (priority 2008, published 2010)", "format_in_all_cases": "in vivo, human", "key": {"KPNA1 mRNA": {"test_system": "KPNA1 mRNA", "assay": "Microarray analysis of KPNA1 mRNA expression in PBMC of malaria patients before and after chloroquine therapy", "conditions": "disease-decreased level (3.9-fold), p=0.0015, data set GSE5418", "excerpt": "(§1) (See FIG. 12). […] (See FIG. 12)."}, "NLRP1 mRNA": {"test_system": "NLRP1 mRNA", "assay": "Microarray analysis of NLRP1 mRNA expression in PBMC of malaria patients before and after chloroquine therapy", "conditions": "disease-decreased level (1.4-fold), p=0.016, data set GSE5418", "excerpt": "as §1"}, "NLRP3 mRNA": {"test_system": "NLRP3 mRNA", "assay": "Microarray analysis of NLRP3 mRNA expression in PBMC of malaria patients before and after chloroquine therapy", "conditions": "disease-increased level (2.7-fold), p=0.024, data set GSE5418", "excerpt": "as §1"}, "KPNA6 mRNA": {"test_system": "KPNA6 mRNA", "assay": "Microarray analysis of KPNA6 mRNA expression in PBMC of malaria patients before and after chloroquine therapy", "conditions": "data set GSE5418", "excerpt": "as §1"}, "[1]": {"test_system": "principal components of nuclear import and inflammasome pathways", "assay": "Gene expression phenotypes of nuclear import and inflammasome pathways in PBMC of chloroquine-treated malaria patients", "conditions": "PBMC of malaria patients treated with chloroquine"}}}
{"compound": "CCN(CC)CCCC(C)Nc1ccnc2cc(Cl)ccc12", "note": "(centres unmarked) [chloroquine]", "values": [{"measurement": "KPNA1 mRNA expression elevated after chloroquine therapy", "setting": "KPNA1 mRNA", "value": 66, "unit": "%"}, {"measurement": "NLRP1 mRNA expression elevated after chloroquine therapy", "setting": "NLRP1 mRNA", "value": 13, "unit": "%"}, {"measurement": "NLRP3 mRNA expression reduced after chloroquine therapy", "setting": "NLRP3 mRNA", "value": 57, "unit": "%"}, {"measurement": "KPNA6 mRNA expression change after chloroquine therapy", "setting": "KPNA6 mRNA", "value": "do not manifest statistically significant changes"}, {"measurement": "Effect on aberrant disease-associated gene expression phenotypes (KPNA1, NLRP1, NLRP3)", "setting": "[1]", "value": "partial reversal of the aberrant gene expression phenotypes"}]}
